Target: T1, STK38 (NDR) (Homo sapiens, UniProt Q15208)
T1 construct: purchased Thermo Fisher Scientific (Life Technologies) SelectScreen
Assay: SelectScreen LanthaScreen
Assay type: binding
Details: read-out: % displacement
In short: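 Percent values come from Thermo SelectScreen profiling of NU5455, combining activity and binding assays. CSF1R was run in Z'LYTE format at Km app ATP, and CAMK1 in Adapta format with ATP listed at 10.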

T1 sequence (Q15208 whole entry): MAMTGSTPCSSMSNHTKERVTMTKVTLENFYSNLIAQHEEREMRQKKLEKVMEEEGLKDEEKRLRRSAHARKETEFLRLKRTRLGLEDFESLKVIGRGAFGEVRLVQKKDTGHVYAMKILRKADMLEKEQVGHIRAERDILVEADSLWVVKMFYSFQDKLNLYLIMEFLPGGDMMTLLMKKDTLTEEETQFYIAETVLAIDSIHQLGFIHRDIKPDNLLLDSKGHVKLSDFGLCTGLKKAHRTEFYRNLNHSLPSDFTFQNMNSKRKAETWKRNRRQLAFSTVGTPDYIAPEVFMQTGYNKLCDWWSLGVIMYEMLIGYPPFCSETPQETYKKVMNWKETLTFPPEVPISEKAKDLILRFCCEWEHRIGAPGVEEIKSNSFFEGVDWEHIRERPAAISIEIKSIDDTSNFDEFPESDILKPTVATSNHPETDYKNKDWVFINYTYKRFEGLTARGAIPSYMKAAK

Work on CN(C(=O)CN1CCOCC1)c1ccc2sc3c(-c4cccc5c(=O)cc(N6CC7CCC(C6)O7)oc45)cccc3c2c1 [NU5455] yielded an inhibition at 1 µM of -5.9%.
